Laboratory results published in ChEMBL document CHEMBL1201862, “PubChem BioAssay data set” (2004).
Calls of active or inactive are those of the source.

What was measured:
[1] = target: Paired box protein Pax-8 (Homo sapiens, UniProt Q06710); assay: PAX8 transcriptional activity inhibition in RMG-I – RMG-I cells, luciferase, cherry-pick, dose response (AID 687027); format: functional, cell-based;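 further: luciferase reporter driven by Pax8 target thyroperoxidase promoter measured by SteadyGlo luminescence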
[2] = toxicity toward immortalized ovarian surface epithelium – cell-based, plate reader, dry powder samples, cytotoxicity control for PAX8 inhibitor project, dose response (AID 743045); format: functional
[3] = viability loss in A549 lung cells – cell-based, 24 h, CellTiter-Glo luminescence, cherry-picks, cytotoxicity control, dose response (AID 1053115); format: functional; settings: A549, 24 h
[4] = OVCAR-3 cell viability loss – plate reader, dry powder samples, PAX8 inhibitor project, dose response (AID 743044); format: functional, cell-based
[5] = IGROV1 cell killing – plate reader, dry powder samples, PAX8 inhibitor project, dose response (AID 743043); format: functional, cell-based; settings: IGROV-1
[6] = general mammalian cell viability loss – inhibitor set, cherry-pick, set 2, cytotoxicity control for miR-122 modulator project, dose response (AID 720697); format: functional, cell-based
[7] = general mammalian cell viability loss – activator set, cherry-pick, cytotoxicity control for miR-122 modulator project, dose response (AID 720690); format: functional, cell-based;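 further: HEK293T human cells scored for general mammalian cytotoxicity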
[8] = OVCAR8 cell viability loss – plate reader, dry powder samples, PAX8 project, dose response (AID 743197); format: functional, cell-based; settings: OVCAR-8
[9] = lung carcinoma cell viability loss – CellTiter-Glo luminescence, dry powder, set 17, dose response (AID 1117284); format: functional, cell-based; settings: A549
[10] = TB:CFU starved Measured in Microorganism System Using Imaging - 7108-06_Inhibitor_Dose_DryPowder_Activity_Set2.; format: functional
[11] = target: Cytochrome P450 2C19 (Homo sapiens, UniProt P33261); assay: Cytochrome panel assay with activity outcomes. Panel member name: p450-cyp2c19 Compounds with AC50 equal or less than 10 uM are considered active; format: functional
[12] = viability inhibitors of stage V gametocytes – luminescence, dose response (AID 1117278); format: functional, cell-based;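 further: gametocytes exposed to compound for 24 hours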
[13] = viability loss in human Jurkat cells – cell-based, luminescence, cytotoxicity control for P. falciparum gametocyte viability project, dose response (AID 1117277); format: functional;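 further: potency reflects loss of cellular ATP meaning fewer viable cells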
[14] = target: T1, Cytochrome P450 1A2 (Homo sapiens, UniProt P05177);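 further: PubChem cytochrome P450 panel assay, CYP1A2 panel member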
T1 sequence (P05177 whole entry): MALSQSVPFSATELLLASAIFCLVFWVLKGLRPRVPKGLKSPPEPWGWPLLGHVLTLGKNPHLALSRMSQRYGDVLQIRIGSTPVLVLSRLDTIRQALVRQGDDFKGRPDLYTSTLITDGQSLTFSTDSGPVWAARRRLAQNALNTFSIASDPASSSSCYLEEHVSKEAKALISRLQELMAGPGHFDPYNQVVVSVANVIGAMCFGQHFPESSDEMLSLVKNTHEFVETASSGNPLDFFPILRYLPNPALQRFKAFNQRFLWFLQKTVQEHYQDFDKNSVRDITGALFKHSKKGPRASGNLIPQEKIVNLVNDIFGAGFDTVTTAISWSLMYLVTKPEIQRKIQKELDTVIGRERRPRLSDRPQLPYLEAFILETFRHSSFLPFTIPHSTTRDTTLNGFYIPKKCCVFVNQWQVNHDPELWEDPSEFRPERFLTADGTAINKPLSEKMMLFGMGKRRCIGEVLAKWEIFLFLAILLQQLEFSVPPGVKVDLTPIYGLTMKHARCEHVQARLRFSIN

[15] = target: T2, Cysteine protease ATG4B (Homo sapiens, UniProt Q9Y4P1); format: functional;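 further: Fluorescence-based dose-response confirmation assay measuring inhibition of ATG4B activity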
T2 sequence (Q9Y4P1 whole entry): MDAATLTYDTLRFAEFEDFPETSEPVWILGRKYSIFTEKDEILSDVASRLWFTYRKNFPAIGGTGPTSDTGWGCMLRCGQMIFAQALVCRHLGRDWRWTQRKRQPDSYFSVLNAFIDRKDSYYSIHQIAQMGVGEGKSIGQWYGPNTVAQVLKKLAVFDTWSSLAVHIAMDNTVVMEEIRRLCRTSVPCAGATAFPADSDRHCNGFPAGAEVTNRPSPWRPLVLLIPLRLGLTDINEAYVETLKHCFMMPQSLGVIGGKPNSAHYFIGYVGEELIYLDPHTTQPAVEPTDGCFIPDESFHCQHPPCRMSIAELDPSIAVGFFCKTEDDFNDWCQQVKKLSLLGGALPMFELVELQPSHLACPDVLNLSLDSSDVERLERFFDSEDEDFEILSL

[16] = target: Heat shock protein HSP 90-alpha (Homo sapiens, UniProt P07900); format: functional, organism-based
[17] = target: Phospholipase A2 (Homo sapiens, UniProt P04054); format: functional;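 further: confirmatory dose-response counterscreen on phospholipase A2, testing hits that came from an ultra-high-throughput screen for ATG4B inhibitors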
[18] = viability loss in HeLa cells – cytotoxicity control for MgcRacGAP inhibitor project, dose response (AID 624300); format: functional
[19] = target: T3, Rac GTPase-activating protein 1 (Homo sapiens, UniProt Q9H0H5); assay: blockers of MgcRacGAP-driven Rac1 GTP hydrolysis – biochemical, ADP Hunter fluorescence, primary and confirmatory, confirmation (AID 624330); format: functional
T3 sequence (Q9H0H5 whole entry): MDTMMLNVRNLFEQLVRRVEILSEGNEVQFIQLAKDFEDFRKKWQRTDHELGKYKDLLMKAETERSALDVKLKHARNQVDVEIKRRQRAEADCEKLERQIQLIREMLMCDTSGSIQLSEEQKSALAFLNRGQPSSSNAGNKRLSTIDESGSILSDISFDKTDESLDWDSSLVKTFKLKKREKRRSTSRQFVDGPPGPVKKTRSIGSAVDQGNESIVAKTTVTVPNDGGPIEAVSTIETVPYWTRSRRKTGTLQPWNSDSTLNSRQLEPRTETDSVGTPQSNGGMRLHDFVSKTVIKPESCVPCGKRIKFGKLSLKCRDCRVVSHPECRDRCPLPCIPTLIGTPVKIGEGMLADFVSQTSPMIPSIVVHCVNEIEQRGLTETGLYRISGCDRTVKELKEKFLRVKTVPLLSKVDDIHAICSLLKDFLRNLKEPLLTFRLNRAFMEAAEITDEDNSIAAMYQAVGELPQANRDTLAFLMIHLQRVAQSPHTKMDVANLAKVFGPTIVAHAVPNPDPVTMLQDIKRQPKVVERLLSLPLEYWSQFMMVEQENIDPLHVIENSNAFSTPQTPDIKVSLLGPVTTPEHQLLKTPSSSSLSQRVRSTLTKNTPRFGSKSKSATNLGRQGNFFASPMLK

[20] = target: T4, DNA repair protein RAD52 homolog (Homo sapiens, UniProt P43351); format: functional, biochemical
T4 sequence (P43351 whole entry): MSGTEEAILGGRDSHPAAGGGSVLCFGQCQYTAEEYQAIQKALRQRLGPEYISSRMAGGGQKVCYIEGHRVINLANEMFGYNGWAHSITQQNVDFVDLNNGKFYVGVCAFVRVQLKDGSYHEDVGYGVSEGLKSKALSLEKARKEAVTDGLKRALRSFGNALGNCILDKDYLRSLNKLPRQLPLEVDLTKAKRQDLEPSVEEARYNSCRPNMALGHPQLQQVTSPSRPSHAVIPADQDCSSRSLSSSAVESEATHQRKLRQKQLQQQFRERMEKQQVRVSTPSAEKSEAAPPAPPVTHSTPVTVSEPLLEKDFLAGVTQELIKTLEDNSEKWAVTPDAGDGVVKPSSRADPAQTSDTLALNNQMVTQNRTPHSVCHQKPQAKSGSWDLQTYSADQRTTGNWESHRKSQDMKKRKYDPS

[21] = rise of 2N DNA cells, HeLa – IC50, dose response (AID 1117349); format: functional, cell-based
[22] = CellTiter-Glo luminescence survival assay, SW480 colon tumor line, concentration-response curve, half-maximal inhibitory concentration (AID 1117338); format: functional
[23] = RKO cell viability reduction, dose response, CellTiter-Glo luminescence (AID 1117322); format: functional
[24] = cytotoxicity toward HCT116 cells – cell-based, CellTiter-Glo luminescence, IC50, dose response (AID 1117332); format: functional; settings: HCT-116
[25] = SNU-C1 cell viability reduction, dose response, CellTiter-Glo luminescence (AID 1117323); format: functional, cell-based
[26] = cells; format: functional, cell-based; settings: INS-1E
[27] = glucagon-like peptide-1 release potency in STC-1, concentration-response, half-maximal inhibitory concentration in the STC-1 line (AID 1117345); format: functional, cell-based
[28] = cytotoxicity toward Colo320 cells – cell-based, CellTiter-Glo luminescence, IC50, dose response (AID 1117334); format: functional; settings: COLO 320
[29] = rise of 4N DNA cells, HeLa – IC50, dose response (AID 1117351); format: functional, cell-based
[30] = cytotoxicity toward HT-29 cells – cell-based, CellTiter-Glo luminescence, IC50, dose response (AID 1117330); format: functional
[31] = Reduced DLD-1 viability, concentration-response, CellTiter-Glo luminescence (AID 1117352); format: functional
[32] = HCT116 cell viability decrease, GSK3B pretreatment – CellTiter-Glo, IC50, dose response (AID 1117339); format: functional; settings: HCT-116
[33] = Potency on glucagon-like peptide 1 release, dose-response in NCI-H716 cell line, half maximal inhibitory concentration (AID 1117344); format: functional, cell-based
[34] = tested on: Vero; assay: viability of Vero cells under compound – cytotoxicity control for flavivirus capping enzyme inhibitors (AID 588742); format: functional; settings: Chlorocebus sabaeus
[35] = viability loss in THP-1 monocytes – THP-1 cells, cytotoxicity control for Vif-APOBEC3G degradation inhibitor project, dose response (AID 1117359); format: functional; settings: THP-1
[36] = target: Glutathione-S-transferase (Schistosoma japonicum, UniProt Q26513); assay: GST-antibody interaction or FRET quenching – biochemical, TR-FRET, artefact control for Vif-APOBEC3G degradation inhibitor project, dose response (AID 1117362); format: functional
Glutathione-S-transferase, sequence (Q26513 whole entry): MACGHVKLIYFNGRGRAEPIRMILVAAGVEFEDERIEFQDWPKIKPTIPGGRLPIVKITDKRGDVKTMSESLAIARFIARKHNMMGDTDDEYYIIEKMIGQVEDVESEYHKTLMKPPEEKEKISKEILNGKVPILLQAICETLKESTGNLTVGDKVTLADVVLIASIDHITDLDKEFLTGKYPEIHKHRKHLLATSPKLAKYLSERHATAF

Phospholipase A2, sequence (P04054 whole entry): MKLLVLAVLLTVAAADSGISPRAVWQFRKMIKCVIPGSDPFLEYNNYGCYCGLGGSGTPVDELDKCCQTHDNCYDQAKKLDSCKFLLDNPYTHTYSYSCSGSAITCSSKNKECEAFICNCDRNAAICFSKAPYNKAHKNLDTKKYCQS
Cytochrome P450 2C19, sequence (P33261 whole entry): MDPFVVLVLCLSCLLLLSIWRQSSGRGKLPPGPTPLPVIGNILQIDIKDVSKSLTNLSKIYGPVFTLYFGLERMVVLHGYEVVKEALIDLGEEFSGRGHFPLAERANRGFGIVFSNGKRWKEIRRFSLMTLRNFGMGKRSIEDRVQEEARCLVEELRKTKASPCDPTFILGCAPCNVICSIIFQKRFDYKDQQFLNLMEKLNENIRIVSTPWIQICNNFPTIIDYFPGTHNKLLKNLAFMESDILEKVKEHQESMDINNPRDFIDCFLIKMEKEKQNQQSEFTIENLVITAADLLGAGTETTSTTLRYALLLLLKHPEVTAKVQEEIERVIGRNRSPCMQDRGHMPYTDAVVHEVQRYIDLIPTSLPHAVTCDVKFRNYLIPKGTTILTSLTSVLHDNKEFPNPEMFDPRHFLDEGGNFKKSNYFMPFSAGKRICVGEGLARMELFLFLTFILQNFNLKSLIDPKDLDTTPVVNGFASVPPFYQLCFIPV
Paired box protein Pax-8, sequence (Q06710 whole entry): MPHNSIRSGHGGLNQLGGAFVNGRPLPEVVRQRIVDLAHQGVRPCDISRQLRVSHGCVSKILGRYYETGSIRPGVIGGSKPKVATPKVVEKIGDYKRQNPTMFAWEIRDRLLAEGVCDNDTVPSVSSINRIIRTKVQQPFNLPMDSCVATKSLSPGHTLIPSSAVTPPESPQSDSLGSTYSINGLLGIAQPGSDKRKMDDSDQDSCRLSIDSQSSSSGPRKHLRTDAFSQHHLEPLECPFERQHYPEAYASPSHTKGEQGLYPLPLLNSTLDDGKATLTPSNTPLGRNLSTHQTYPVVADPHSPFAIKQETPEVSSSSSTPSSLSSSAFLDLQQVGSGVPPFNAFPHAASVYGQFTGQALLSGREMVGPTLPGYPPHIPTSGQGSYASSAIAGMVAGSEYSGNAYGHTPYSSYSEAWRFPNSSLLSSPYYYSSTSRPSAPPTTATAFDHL

C[C@H](O)C#Cc1ccc2c(c1)O[C@H](CN(C)Cc1ccc(-c3ccccc3)cc1)[C@@H](C)CN([C@@H](C)CO)S2(=O)=O
inactive: AC50 [3] > 60 µM
active: AC50 [1] 3.42 µM | AC50 [2] 3.37 µM | AC50 [4] 10.7 µM | AC50 [5] 15.9 µM | AC50 [6] 1.58 µM | AC50 [7] 15.2 µM | AC50 [8] 43.2 µM | AC50 [9] 37.9 µM

CCn1c(NC(=O)c2cccnc2O)nc2ccccc21
89.33 µM: AbsAC90 [10]

CCCCC1(C)NC(=O)c2c(C)sc(C(=O)OCC)c2N1 (stereo unspecified)
inactive: IC50 [12] > 109 µM | IC50 [13] > 83.3 µM
inconclusive: AC50 [11] 2.24 µM | AC50 [14] 14.1 µM

CCCCCCCCCCCCCCCC[n+]1ccccc1
active: IC50 [15] 7.14 µM | AC50 [16] 4.22 µM | IC50 [17] 8.34 µM | CC50 [18] 11.8 µM | IC50 [19] 61.1 µM | AC50 [20] 3.79 µM | IC50 [21] 1.25 µM | IC50 [22] 1.61 µM | IC50 [23] 1.27 µM | IC50 [24] 1.19 µM | IC50 [25] 0.934 µM | IC50 [28] 1.64 µM | IC50 [30] 2.29 µM | IC50 [31] 1.93 µM | IC50 [32] 2.29 µM
inactive: IC50 [26] > 33.3 µM | IC50 [27] > 20 µM | IC50 [29] > 10 µM | IC50 [33] 14.8 µM

CC[n+]1c(/C=C2/C=C(C)CC(C)(C)C2)sc2ccc(OC)cc21
active: CC50 [34] > 40 µM | CC50 [35] 4.13 µM | IC50 [36] > 100 µM
